Laboratory results taken from ChEMBL document CHEMBL1133491, “Synthesis and binding to plant lectins of sulfur-containing analogues of betaGal1,3 alphaGalNAc (T-antigen)” (Bioorg Med Chem Lett, 2000).

Assays:
[1] = Binding affinity to Agglutinin was evaluated; parameters: species or system Arachis hypogaea
Erythrina corallodendron = assay: Binding affinity to Erythrina corallodendron lectin was evaluated; assay type: functional
[2] = Binding affinity to soybean agglutinin was evaluated; parameters: species or system Glycine max

CC(=O)N[C@@H]1[C@H](Oc2cccc3ccccc23)O[C@@H](CO)[C@@H](O)[C@@H]1O
IC50 [1]: 1950 µM
IC50 (Erythrina corallodendron): 1510 µM
IC50 [2]: 1290 µM

CC(=O)N[C@@H]1[C@H](Oc2ccccc2)O[C@@H](CO)[C@@H](O)[C@@H]1O
IC50 [1]: 2510 µM
IC50 (Erythrina corallodendron): 1150 µM
IC50 [2]: 1720 µM
